Source: publication PMC5218480 (PLoS ONE, 2017)

Tested on: MV-4-11 cells
Test: Gene expression microarray analysis (Affymetrix PrimeView) and GSEA
Type: cell-based, human
Parameters: RFU PODN (11730768_x_at) / Fold change /veh PODN (11730768_x_at) / RFU LINC00158 (11744669_a_at) / Fold change /veh LINC00158 (11744669_a_at) / RFU DUSP10 (11751237_a_at) / Fold change /veh DUSP10 (11751237_a_at) / RFU ID3 (11757404_x_at) / Fold change /veh ID3 (11757404_x_at) / RFU PLEKHG5 (11737974_s_at) / Fold change /veh PLEKHG5 (11737974_s_at) / RFU LRRC4B (11730491_at) / Fold change /veh LRRC4B (11730491_at) / RFU GIMAP4 (11747438_a_at) / Fold change /veh GIMAP4 (11747438_a_at) / RFU KRT8 (11758183_x_at) / Fold change /veh KRT8 (11758183_x_at) / RFU CNN1 (11734310_a_at) / Fold change /veh CNN1 (11734310_a_at) / RFU VPS37D (11726825_at) / Fold change /veh VPS37D (11726825_at) / RFU C10orf10 (11716522_x_at) / Fold change /veh C10orf10 (11716522_x_at) / RFU KIR2DL2 /// KIR2DL4 /// KIR2DL5A /// KIR2DL5B /// KIR2DS1 /// KIR2DS2 /// KIR2DS3 /// KIR2DS4 /// KIR3DL3 /// KIR3DL3 /// KIR3DS1 (11738374_at) / Fold change /veh KIR2DL2 /// KIR2DL4 /// KIR2DL5A /// KIR2DL5B /// KIR2DS1 /// KIR2DS2 /// KIR2DS3 /// KIR2DS4 /// KIR3DL3 /// KIR3DL3 /// KIR3DS1 (11738374_at) / RFU C1QL1 (11718748_at) / Fold change /veh C1QL1 (11718748_at) / RFU TMPRSS4 (11747572_a_at) / Fold change /veh TMPRSS4 (11747572_a_at) / RFU HAMP (11756126_x_at) / Fold change /veh HAMP (11756126_x_at) / RFU RNFT2 (11725882_a_at) / Fold change /veh RNFT2 (11725882_a_at) / RFU NR4A2 (11747474_a_at) / Fold change /veh NR4A2 (11747474_a_at) / RFU ABCC12 (11746883_a_at) / Fold change /veh ABCC12 (11746883_a_at) / RFU TMEM136 (11760407_x_at) / Fold change /veh TMEM136 (11760407_x_at) / RFU CLDN22 /// WWC2 (11732394_at) / Fold change /veh CLDN22 /// WWC2 (11732394_at) / RFU HLA-DPB1 (11760878_x_at) / Fold change /veh HLA-DPB1 (11760878_x_at) / RFU SPINT1 (11716480_a_at) / Fold change /veh SPINT1 (11716480_a_at) / RFU GAP43 (11754022_s_at) / Fold change /veh GAP43 (11754022_s_at) / RFU A4GNT (11735810_at) / Fold change /veh A4GNT (11735810_at) / RFU PRB3 (11715151_x_at) / Fold change /veh PRB3 (11715151_x_at) / RFU TUBB4B (11761932_at) / Fold change /veh TUBB4B (11761932_at) / RFU CAPN14 (11732068_a_at) / Fold change /veh CAPN14 (11732068_a_at) / RFU TMCC2 (11721928_a_at) / Fold change /veh TMCC2 (11721928_a_at) / RFU IRGQ (11745062_a_at) / Fold change /veh IRGQ (11745062_a_at) / RFU FAM174B (11720279_a_at) / Fold change /veh FAM174B (11720279_a_at) / RFU TMPRSS4 (11748680_a_at) / Fold change /veh TMPRSS4 (11748680_a_at) / RFU FAM212B (11763350_a_at) / Fold change /veh FAM212B (11763350_a_at) / RFU PLEKHG5 (11743358_a_at) / Fold change /veh PLEKHG5 (11743358_a_at) / RFU ZSCAN30 (11745921_a_at) / Fold change /veh ZSCAN30 (11745921_a_at) / RFU CMKLR1 (11741424_a_at) / Fold change /veh CMKLR1 (11741424_a_at) / RFU LOC101060620 /// MAPK8IP1 (11723275_at) / Fold change /veh LOC101060620 /// MAPK8IP1 (11723275_at) / RFU SPTSSB (11747773_x_at) / Fold change /veh SPTSSB (11747773_x_at) / RFU PRSS12 (11739890_at) / Fold change /veh PRSS12 (11739890_at) / RFU BIN1 (11741810_x_at) / Fold change /veh BIN1 (11741810_x_at) / RFU WNT11 (11732464_a_at) / Fold change /veh WNT11 (11732464_a_at) / RFU C10orf10 (11716521_a_at) / Fold change /veh C10orf10 (11716521_a_at) / RFU C5orf56 (11738089_at) / Fold change /veh C5orf56 (11738089_at) / RFU CYB561 (11721691_x_at) / Fold change /veh CYB561 (11721691_x_at) / RFU ANKRD19P (11752326_a_at) / Fold change /veh ANKRD19P (11752326_a_at) / RFU OR2T12 /// OR2T33 /// OR2T8 (11738714_s_at) / Fold change /veh OR2T12 /// OR2T33 /// OR2T8 (11738714_s_at) / RFU VCAN (11748164_a_at) / Fold change /veh VCAN (11748164_a_at) / RFU JSRP1 (11732532_at) / Fold change /veh JSRP1 (11732532_at) / RFU KRTAP10-11 (11738290_x_at) / Fold change /veh KRTAP10-11 (11738290_x_at) / RFU MYO3A (11730013_a_at) / Fold change /veh MYO3A (11730013_a_at) / RFU EBF3 (11725865_a_at) / Fold change /veh EBF3 (11725865_a_at) / RFU CAMK2N1 (11719241_x_at) / Fold change /veh CAMK2N1 (11719241_x_at) / RFU C5orf56 (11738088_a_at) / Fold change /veh C5orf56 (11738088_a_at) / RFU OLFML3 (11715873_a_at) / Fold change /veh OLFML3 (11715873_a_at) / RFU LOC100653217 /// NTM (11731650_a_at) / Fold change /veh LOC100653217 /// NTM (11731650_a_at) / RFU MAPK11 (11762145_a_at) / Fold change /veh MAPK11 (11762145_a_at) / RFU FIZ1 (11724087_x_at) / Fold change /veh FIZ1 (11724087_x_at) / RFU OASL (11726364_x_at) / Fold change /veh OASL (11726364_x_at) / RFU SOX15 (11748057_x_at) / Fold change /veh SOX15 (11748057_x_at) / RFU CD79A (11719716_a_at) / Fold change /veh CD79A (11719716_a_at) / RFU HIST1H1D (11736915_at) / Fold change /veh HIST1H1D (11736915_at) / RFU CASKIN2 (11723855_a_at) / Fold change /veh CASKIN2 (11723855_a_at) / RFU LOC730098 (11760151_x_at) / Fold change /veh LOC730098 (11760151_x_at) / RFU OR4N2 (11742367_at) / Fold change /veh OR4N2 (11742367_at) / RFU PRRT2 (11749266_a_at) / Fold change /veh PRRT2 (11749266_a_at) / RFU SNX32 (11753110_a_at) / Fold change /veh SNX32 (11753110_a_at) / RFU CDHR5 (11726645_a_at) / Fold change /veh CDHR5 (11726645_a_at) / RFU RCAN1 (11760418_a_at) / Fold change /veh RCAN1 (11760418_a_at) / RFU FAM167A (11723789_a_at) / Fold change /veh FAM167A (11723789_a_at) / RFU FAM26E (11764081_at) / Fold change /veh FAM26E (11764081_at) / RFU ISYNA1 (11749810_s_at) / Fold change /veh ISYNA1 (11749810_s_at) / RFU ACY1 (11761880_at) / Fold change /veh ACY1 (11761880_at) / RFU 11764098_at / Fold change /veh 11764098_at / RFU SAMD14 (11745864_x_at) / Fold change /veh SAMD14 (11745864_x_at) / RFU NPB (11741838_a_at) / Fold change /veh NPB (11741838_a_at) / RFU TMPRSS6 (11731388_a_at) / Fold change /veh TMPRSS6 (11731388_a_at) / RFU KRTAP10-2 (11738614_at) / Fold change /veh KRTAP10-2 (11738614_at) / RFU ARHGAP8 /// PRR5-ARHGAP8 (11727945_x_at) / Fold change /veh ARHGAP8 /// PRR5-ARHGAP8 (11727945_x_at) / RFU KRTAP5-7 /// NADSYN1 (11734609_at) / Fold change /veh KRTAP5-7 /// NADSYN1 (11734609_at) / RFU RASL12 (11751679_a_at) / Fold change /veh RASL12 (11751679_a_at) / RFU CDKN2B (11736163_a_at) / Fold change /veh CDKN2B (11736163_a_at) / RFU PRF1 (11729649_at) / Fold change /veh PRF1 (11729649_at) / RFU, ZNF638 /// ZNF638-IT1 / Fold change vs veh, ZNF638 /// ZNF638-IT1 / RFU, PANK3 / Fold change vs veh, PANK3 / RFU, SH3YL1 / Fold change vs veh, SH3YL1 / RFU, ZEB2 / Fold change vs veh, ZEB2 / RFU, NRIP1 / Fold change vs veh, NRIP1 / RFU, PTTG1IP / Fold change vs veh, PTTG1IP / RFU, CAPN2 / Fold change vs veh, CAPN2 / RFU, MED14 / Fold change vs veh, MED14 / RFU, SNORA58 / Fold change vs veh, SNORA58 / RFU, C1orf63 / Fold change vs veh, C1orf63 / RFU, LRRFIP1 / Fold change vs veh, LRRFIP1 / RFU, NDUFAF7 / Fold change vs veh, NDUFAF7 / RFU, SLC12A2 / Fold change vs veh, SLC12A2 / RFU, IBTK / Fold change vs veh, IBTK / RFU, ESF1 / Fold change vs veh, ESF1 / Fold change vs veh, TMEM50B / RFU, TAOK1 / Fold change vs veh, TAOK1 / RFU, ACBD3 / Fold change vs veh, ACBD3 / RFU, TMA16 / Fold change vs veh, TMA16 / RFU, RWDD3 / Fold change vs veh, RWDD3 / RFU, BCAT1 / Fold change vs veh, BCAT1 / RFU, EDEM3 / Fold change vs veh, EDEM3 / RFU, TMEM33 / Fold change vs veh, TMEM33 / RFU, WDR75 / Fold change vs veh, WDR75 / RFU, AHCTF1 / Fold change vs veh, AHCTF1 / RFU, TFRC / Fold change vs veh, TFRC / RFU, ZDHHC17 / Fold change vs veh, ZDHHC17 / RFU, NOM1 / Fold change vs veh, NOM1 / RFU, ARL8B / Fold change vs veh, ARL8B / RFU, ZBTB11 / Fold change vs veh, ZBTB11 / RFU, TAMM41 / Fold change vs veh, TAMM41 / RFU, KIAA1704 /// LOC100996395 / Fold change vs veh, KIAA1704 /// LOC100996395 / RFU, ING1 / Fold change vs veh, ING1 / RFU, TRMT61B / Fold change vs veh, TRMT61B / RFU, FUBP3 / Fold change vs veh, FUBP3 / RFU, TP53 / Fold change vs veh, TP53 / RFU, TNKS2 / Fold change vs veh, TNKS2 / RFU, ZFP14 / Fold change vs veh, ZFP14 / RFU, ACTR2 / Fold change vs veh, ACTR2 / RFU, PPP3R1 / Fold change vs veh, PPP3R1 / RFU, PIK3R1 / Fold change vs veh, PIK3R1 / RFU, HNRNPA1 / Fold change vs veh, HNRNPA1 / RFU, RNF170 / Fold change vs veh, RNF170 / RFU, ZNF28 / Fold change vs veh, ZNF28 / RFU, RNGTT / Fold change vs veh, RNGTT / RFU, OGT / Fold change vs veh, OGT / RFU, BRD1 / Fold change vs veh, BRD1 / RFU, MARS / Fold change vs veh, MARS / RFU, ZNF655 / Fold change vs veh, ZNF655 / RFU, FAHD1 / Fold change vs veh, FAHD1 / RFU, BDP1 / Fold change vs veh, BDP1 / RFU, LRRCC1 / Fold change vs veh, LRRCC1 / RFU, ARID1A / Fold change vs veh, ARID1A / RFU, ZNF146 / Fold change vs veh, ZNF146 / RFU, ZNF330 / Fold change vs veh, ZNF330 / RFU, GPN3 / Fold change vs veh, GPN3 / RFU, C9orf123 / Fold change vs veh, C9orf123 / RFU, N4BP2L2 / Fold change vs veh, N4BP2L2 / RFU, ARFIP1 / Fold change vs veh, ARFIP1 / RFU, FAM179B / Fold change vs veh, FAM179B / RFU, BCL10 / Fold change vs veh, BCL10 / RFU, UHRF1BP1L / Fold change vs veh, UHRF1BP1L / RFU, BET1 / Fold change vs veh, BET1 / RFU, CNOT2 / Fold change vs veh, CNOT2 / RFU, ZNF268 / Fold change vs veh, ZNF268 / Fold change vs veh, ZNF507 / RFU, DGCR2 / Fold change vs veh, DGCR2 / RFU, WDSUB1 / Fold change vs veh, WDSUB1 / Fold change vs veh, HSP90B1 /// MIR3652 / RFU, ADSS / Fold change vs veh, ADSS / RFU, GK / Fold change vs veh, GK / RFU, ZNF148 / Fold change vs veh, ZNF148 / RFU, TAF9 / Fold change vs veh, TAF9 / RFU, SLC1A5 / Fold change vs veh, SLC1A5 / RFU, SLMO2 / Fold change vs veh, SLMO2 / RFU, ABCC4 / Fold change vs veh, ABCC4 / RFU, LOC101060439 /// RAP1B / Fold change vs veh, LOC101060439 /// RAP1B / RFU, RFX7 / Fold change vs veh, RFX7 / RFU, GTPBP10 / Fold change vs veh, GTPBP10 / RFU, CNEP1R1 / Fold change vs veh, CNEP1R1 / RFU, BIVM-ERCC5 /// ERCC5 / Fold change vs veh, BIVM-ERCC5 /// ERCC5 / RFU, ILF3 / Fold change vs veh, ILF3 / RFU 11762660_at / Fold change /veh 11762660_at / RFU VCAN (11757783_s_at) / Fold change /veh VCAN (11757783_s_at) / RFU DDX43 (11728927_at) / Fold change /veh DDX43 (11728927_at) / RFU KRT8 (11758188_x_at) / Fold change /veh KRT8 (11758188_x_at) / RFU NKD1 (11759106_at) / Fold change /veh NKD1 (11759106_at) / RFU SRD5A1 (11742802_a_at) / Fold change /veh SRD5A1 (11742802_a_at) / RFU TPSAB1 /// TPSB2 (11721975_s_at) / Fold change /veh TPSAB1 /// TPSB2 (11721975_s_at) / RFU GSTM3 (11746129_a_at) / Fold change /veh GSTM3 (11746129_a_at) / RFU IL23R (11737362_x_at) / Fold change /veh IL23R (11737362_x_at) / RFU TMEM51 (11727254_a_at) / Fold change /veh TMEM51 (11727254_a_at) / RFU PIWIL2 (11732686_x_at) / Fold change /veh PIWIL2 (11732686_x_at) / RFU ORM1 (11744905_x_at) / Fold change /veh ORM1 (11744905_x_at) / RFU CCDC152 (11743942_at) / Fold change /veh CCDC152 (11743942_at) / RFU ECM1 (11717891_a_at) / Fold change /veh ECM1 (11717891_a_at) / RFU IL23R (11748794_a_at) / Fold change /veh IL23R (11748794_a_at) / RFU TNFAIP8L3 (11732012_x_at) / Fold change /veh TNFAIP8L3 (11732012_x_at) / RFU MBOAT4 (11741988_at) / Fold change /veh MBOAT4 (11741988_at) / RFU 11764193_at / Fold change /veh 11764193_at / RFU TMEM53 (11763286_at) / Fold change /veh TMEM53 (11763286_at) / RFU MAGEB2 (11727129_at) / Fold change /veh MAGEB2 (11727129_at) / RFU TMEM200A (11744735_a_at) / Fold change /veh TMEM200A (11744735_a_at) / RFU CCDC152 (11751479_a_at) / Fold change /veh CCDC152 (11751479_a_at) / RFU FAM211A (11726209_a_at) / Fold change /veh FAM211A (11726209_a_at) / RFU RGS16 (11746705_a_at) / Fold change /veh RGS16 (11746705_a_at) / RFU VCAN (11755009_s_at) / Fold change /veh VCAN (11755009_s_at) / RFU RHOB (11743442_s_at) / Fold change /veh RHOB (11743442_s_at) / RFU RGS16 (11720943_a_at) / Fold change /veh RGS16 (11720943_a_at) / RFU RGS16 (11720944_at) / Fold change /veh RGS16 (11720944_at) / RFU, VPS4B / Fold change vs veh, VPS4B / RFU, CREB1 / Fold change vs veh, CREB1 / RFU, DNAJC13 / Fold change vs veh, DNAJC13 / RFU, GNAQ / Fold change vs veh, GNAQ / RFU, CDK5R1 / Fold change vs veh, CDK5R1 / RFU, ZRANB3 / Fold change vs veh, ZRANB3 / RFU, CUL4A / Fold change vs veh, CUL4A / RFU, CCNY / Fold change vs veh, CCNY / RFU, UFL1 / Fold change vs veh, UFL1 / RFU, COG3 / Fold change vs veh, COG3 / RFU, DIAPH2 / Fold change vs veh, DIAPH2 / RFU, SKA2 / Fold change vs veh, SKA2 / RFU, AFF3 / Fold change vs veh, AFF3 / RFU, LMF1 / Fold change vs veh, LMF1 / RFU, IPO11 / Fold change vs veh, IPO11 / RFU, DFFB / Fold change vs veh, DFFB / RFU, FOXP1 / Fold change vs veh, FOXP1 / RFU, CARD8 / Fold change vs veh, CARD8 / RFU, STRN3 / Fold change vs veh, STRN3 / RFU, ADK / Fold change vs veh, ADK / RFU, RASSF2 / Fold change vs veh, RASSF2 / RFU, WIPF1 / Fold change vs veh, WIPF1 / RFU, LARP1B / Fold change vs veh, LARP1B / RFU, RASA1 / Fold change vs veh, RASA1 / RFU, RB1 / Fold change vs veh, RB1 / RFU, PPFIA1 / Fold change vs veh, PPFIA1 / RFU, MAT2A / Fold change vs veh, MAT2A / RFU, CCT5 / Fold change vs veh, CCT5 / RFU, WDR92 / Fold change vs veh, WDR92 / RFU, CUX1 / Fold change vs veh, CUX1 / RFU, TTC7A / Fold change vs veh, TTC7A / RFU, TMEM135 / Fold change vs veh, TMEM135 / RFU, DEPTOR / Fold change vs veh, DEPTOR / RFU, CPM / Fold change vs veh, CPM / RFU, DNAJB6 / Fold change vs veh, DNAJB6 / RFU, CACNA2D3 / Fold change vs veh, CACNA2D3 / RFU, DTX4 / Fold change vs veh, DTX4 / RFU, TFCP2 / Fold change vs veh, TFCP2 / RFU, GMCL1 /// GMCL1P1 / Fold change vs veh, GMCL1 /// GMCL1P1 / RFU, AEBP2 / Fold change vs veh, AEBP2 / RFU, SNHG1 /// SNORD22 /// SNORD25 /// SNORD26 /// SNORD27 /// SNORD28 /// SNORD29 /// SNORD31 / Fold change vs veh, SNHG1 /// SNORD22 /// SNORD25 /// SNORD26 /// SNORD27 /// SNORD28 /// SNORD29 /// SNORD31 / Fold change (Aza/veh), C12orf56 (ProbeSet 11735607_a_at) / Fold change (ACY-1035/veh), C12orf56 (ProbeSet 11735607_a_at) / Fold change (Aza/veh), FGFR1OP (ProbeSet 11751329_s_at) / Fold change (ACY-1035/veh), FGFR1OP (ProbeSet 11751329_s_at) / Fold change (Aza/veh), VPS36 (ProbeSet 11739960_a_at) / Fold change (ACY-1035/veh), VPS36 (ProbeSet 11739960_a_at) / RFU SYPL1 (11715823_x_at) / Fold change /veh SYPL1 (11715823_x_at) / RFU IGFBP7 (11715501_s_at) / Fold change /veh IGFBP7 (11715501_s_at) / RFU REEP3 (11722064_at) / Fold change /veh REEP3 (11722064_at) / RFU IGLL1 (11728026_x_at) / Fold change /veh IGLL1 (11728026_x_at): dose or concentration left out as unconfirmed
Conditions: MV-4-11 cells, 48 hours

Question: Which “RFU CLDN22 /// WWC2 (11732394_at)” value does the source give for `Nc1ccc(-c2cccs2)cc1NC(=O)c1ccc2c(c1)cc(C1CC1)n2CCN1CCOCC1` [ACY-1035] here?
Answer: The value was 8.03 RFU.
